# Experiments:
# Assay type in all cases: physicochemical
# [1] = Stability of human ghrelin in Britton-Robinson buffer solutions of various pH at 40°C (Example 3); settings: pH range of 2 to 7, stored at 40° C. for 1 day (FIG. 3)
# Method: Human ghrelin, which is one of the ghrelins, was dissolved in the Britton-Robinson buffer solutions which is adjusted by combining 0.04M phosphoric acid-acetic acid-boric acid aqueous solution and 0.2M sodium hydrate aqueous solution in appropriate ratio, having pH of 2.1, 3.1, 4.0, 5.0, 6.0, 7.0 and 7.9 to obtain an aqueous solution containing human ghrelin in the concentration of about 0.15 μmol/mL (0.5 mg/mL). The obtained solution was filled in brownish glass ampoules and the ampoules were sealed with fire. For the calculation of kinetic constant, the certain degrees of degradation products have to be occurred in the aqueous solution of the ghrelins, and therefore, the ampoules were stored at 40±1° C., which was severe conditions for storage. The concentration (residual ratio) of human ghrelin was conducted by HPLC with time. At the same time, the pH of the solution was measured and it was confirmed that there was no significant changes of pH in solution.
# The kinetic constants in each pH solution were calculated from the sequential change of the residual ratio, and the results were shown in FIG. 2.
# [2] = Stability of human ghrelin in pH-adjusted purified water at 25°C (Example 7); settings: for Peak area ratio to total peak area: 25±2°C
# Method: Human ghrelin was dissolved in the purified water with about 0.03 μmol/mL (0.1 mg/mL). […] This solution was divided into quarter, and one portion was kept alone and the pH values of the remaining three portions were adjusted to pH 1.8 (with 17 mM of hydrochloric acid), pH 3.9 (with 0.20 mM of hydrochloric acid) and pH 7.8 (with 0.24 mM of sodium hydroxide) respectively, by adding along with hydrochloric acid or sodium hydroxide aqueous solution.
# [3] = Stability of human ghrelin in 0.1M HCl and Mcllvain buffer solutions of various pH at 25°C (Example 2, HPLC peak area ratio)
# Method: Human ghrelin was dissolved in the following aqueous solutions in the concentration of about 0.15 μmol/mL (0.5 mg/mL).
# 0.1M HCl aqueous solution (pH: 1.1)
# The pH was adjusted with 0.1M citric aqueous acid and 0.2M dibasic sodium phosphate aqueous solution.
# Each solution were stored at 25±2° C. for 8, 24, 48 and 72 hours respectively, and the obtained solutions were detected by HPLC analysis in comparison to the solutions before storage. […] No significant changes of pH in solution before storage and after storage were observed.
substance,measurement,setting,value
[3-Dehydroalanine]human ghrelin [Dha compound],Production of the degradation product in human ghrelin solution,[1],inhibited
same,Production of the degradation product in human ghrelin solution,"[2]; aqueous solution of pH 3.9 and 4.7, 25±2°C, up to 3 days",inhibited
same,Peak area ratio to total peak area,"[2]; human ghrelin 0.1 mg/mL in purified water adjusted to pH 1.8 with hydrochloric acid, 1 day after",0.31%
same,Peak area ratio to total peak area,"[2]; human ghrelin 0.1 mg/mL in purified water adjusted to pH 1.8 with hydrochloric acid, before storage",0.20%
same,Peak area ratio to total peak area,"[2]; human ghrelin 0.1 mg/mL in purified water adjusted to pH 3.9 with hydrochloric acid, 1 day after",0.20%
same,Peak area ratio to total peak area,"[2]; human ghrelin 0.1 mg/mL in purified water adjusted to pH 3.9 with hydrochloric acid, 3 days after",0.19%
same,Peak area ratio to total peak area,"[2]; human ghrelin 0.1 mg/mL in purified water adjusted to pH 3.9 with hydrochloric acid, before storage",0.20%
same,Peak area ratio to total peak area,"[2]; human ghrelin 0.1 mg/mL in purified water adjusted to pH 7.8 with sodium hydroxide, 1 day after",0.86%
same,Peak area ratio to total peak area,"[2]; human ghrelin 0.1 mg/mL in purified water adjusted to pH 7.8 with sodium hydroxide, before storage",0.24%
same,Peak area ratio to total peak area,"[2]; human ghrelin 0.1 mg/mL in purified water, pH 4.7 (not adjusted), 1 day after",0.21%
same,Peak area ratio to total peak area,"[2]; human ghrelin 0.1 mg/mL in purified water, pH 4.7 (not adjusted), 3 days after",0.21%
same,Peak area ratio to total peak area,"[2]; human ghrelin 0.1 mg/mL in purified water, pH 4.7 (not adjusted), before storage",0.20%
same,Production of the degradation product in human ghrelin solution,"[3]; Mcllvain buffer, pH range of 3.0 to 5.0, 25±2°C, up to 72 hours",inhibited
same,Peak area ratio to total peak area,"[3]; human ghrelin 0.5 mg/mL in 0.1M HCl aqueous solution, pH 1, 25±2°C, 8 hr. after",0.15%
same,Peak area ratio to total peak area,"[3]; human ghrelin 0.5 mg/mL in 0.1M HCl aqueous solution, pH 1, 25±2°C, 24 hr. after",0.09%
same,Peak area ratio to total peak area,"[3]; human ghrelin 0.5 mg/mL in 0.1M HCl aqueous solution, pH 1, 25±2°C, 48 hr. after",0.04%
same,Peak area ratio to total peak area,"[3]; human ghrelin 0.5 mg/mL in 0.1M HCl aqueous solution, pH 1, 25±2°C, 72 hr. after",0.00%
same,Peak area ratio to total peak area,"[3]; human ghrelin 0.5 mg/mL in 0.1M HCl aqueous solution, pH 1, 25±2°C, before storage",0.21%
same,Peak area ratio to total peak area,"[3]; human ghrelin 0.5 mg/mL in Mcllvain buffer, pH 2, 25±2°C, 8 hr. after",0.20%
same,Peak area ratio to total peak area,"[3]; human ghrelin 0.5 mg/mL in Mcllvain buffer, pH 2, 25±2°C, 24 hr. after",0.23%
same,Peak area ratio to total peak area,"[3]; human ghrelin 0.5 mg/mL in Mcllvain buffer, pH 2, 25±2°C, 48 hr. after",0.24%
same,Peak area ratio to total peak area,"[3]; human ghrelin 0.5 mg/mL in Mcllvain buffer, pH 2, 25±2°C, 72 hr. after",0.25%
same,Peak area ratio to total peak area,"[3]; human ghrelin 0.5 mg/mL in Mcllvain buffer, pH 2, 25±2°C, before storage",0.20%
same,Peak area ratio to total peak area,"[3]; human ghrelin 0.5 mg/mL in Mcllvain buffer, pH 3, 25±2°C, 8 hr. after",0.20%
same,Peak area ratio to total peak area,"[3]; human ghrelin 0.5 mg/mL in Mcllvain buffer, pH 3, 25±2°C, 24 hr. after",0.23%
same,Peak area ratio to total peak area,"[3]; human ghrelin 0.5 mg/mL in Mcllvain buffer, pH 3, 25±2°C, 48 hr. after",0.24%
same,Peak area ratio to total peak area,"[3]; human ghrelin 0.5 mg/mL in Mcllvain buffer, pH 3, 25±2°C, 72 hr. after",0.25%
same,Peak area ratio to total peak area,"[3]; human ghrelin 0.5 mg/mL in Mcllvain buffer, pH 3, 25±2°C, before storage",0.20%
same,Peak area ratio to total peak area,"[3]; human ghrelin 0.5 mg/mL in Mcllvain buffer, pH 4, 25±2°C, 8 hr. after",0.20%
same,Peak area ratio to total peak area,"[3]; human ghrelin 0.5 mg/mL in Mcllvain buffer, pH 4, 25±2°C, 24 hr. after",0.21%
same,Peak area ratio to total peak area,"[3]; human ghrelin 0.5 mg/mL in Mcllvain buffer, pH 4, 25±2°C, 48 hr. after",0.22%
same,Peak area ratio to total peak area,"[3]; human ghrelin 0.5 mg/mL in Mcllvain buffer, pH 4, 25±2°C, 72 hr. after",0.23%
same,Peak area ratio to total peak area,"[3]; human ghrelin 0.5 mg/mL in Mcllvain buffer, pH 4, 25±2°C, before storage",0.20%
same,Peak area ratio to total peak area,"[3]; human ghrelin 0.5 mg/mL in Mcllvain buffer, pH 5, 25±2°C, 8 hr. after",0.21%
same,Peak area ratio to total peak area,"[3]; human ghrelin 0.5 mg/mL in Mcllvain buffer, pH 5, 25±2°C, 24 hr. after",0.21%
same,Peak area ratio to total peak area,"[3]; human ghrelin 0.5 mg/mL in Mcllvain buffer, pH 5, 25±2°C, 48 hr. after",0.23%
same,Peak area ratio to total peak area,"[3]; human ghrelin 0.5 mg/mL in Mcllvain buffer, pH 5, 25±2°C, 72 hr. after",0.24%
same,Peak area ratio to total peak area,"[3]; human ghrelin 0.5 mg/mL in Mcllvain buffer, pH 5, 25±2°C, before storage",0.21%
same,Peak area ratio to total peak area,"[3]; human ghrelin 0.5 mg/mL in Mcllvain buffer, pH 6, 25±2°C, 8 hr. after",0.21%
same,Peak area ratio to total peak area,"[3]; human ghrelin 0.5 mg/mL in Mcllvain buffer, pH 6, 25±2°C, 24 hr. after",0.26%
same,Peak area ratio to total peak area,"[3]; human ghrelin 0.5 mg/mL in Mcllvain buffer, pH 6, 25±2°C, 48 hr. after",0.31%
same,Peak area ratio to total peak area,"[3]; human ghrelin 0.5 mg/mL in Mcllvain buffer, pH 6, 25±2°C, 72 hr. after",0.35%
same,Peak area ratio to total peak area,"[3]; human ghrelin 0.5 mg/mL in Mcllvain buffer, pH 6, 25±2°C, before storage",0.20%
same,Peak area ratio to total peak area,"[3]; human ghrelin 0.5 mg/mL in Mcllvain buffer, pH 7, 25±2°C, 8 hr. after",0.25%
same,Peak area ratio to total peak area,"[3]; human ghrelin 0.5 mg/mL in Mcllvain buffer, pH 7, 25±2°C, 24 hr. after",0.43%
same,Peak area ratio to total peak area,"[3]; human ghrelin 0.5 mg/mL in Mcllvain buffer, pH 7, 25±2°C, 48 hr. after",0.61%
same,Peak area ratio to total peak area,"[3]; human ghrelin 0.5 mg/mL in Mcllvain buffer, pH 7, 25±2°C, 72 hr. after",0.79%
same,Peak area ratio to total peak area,"[3]; human ghrelin 0.5 mg/mL in Mcllvain buffer, pH 7, 25±2°C, before storage",0.22%
same,Peak area ratio to total peak area,"[3]; human ghrelin 0.5 mg/mL in Mcllvain buffer, pH 8, 25±2°C, 8 hr. after",0.68%
same,Peak area ratio to total peak area,"[3]; human ghrelin 0.5 mg/mL in Mcllvain buffer, pH 8, 25±2°C, 24 hr. after",1.39%
same,Peak area ratio to total peak area,"[3]; human ghrelin 0.5 mg/mL in Mcllvain buffer, pH 8, 25±2°C, 48 hr. after",2.39%
same,Peak area ratio to total peak area,"[3]; human ghrelin 0.5 mg/mL in Mcllvain buffer, pH 8, 25±2°C, 72 hr. after",3.12%
same,Peak area ratio to total peak area,"[3]; human ghrelin 0.5 mg/mL in Mcllvain buffer, pH 8, 25±2°C, before storage",0.24%
